Experimental data: ChEMBL document CHEMBL5518186, “Discovery of the cereblon-recruiting tubulin PROTACs effective in overcoming Taxol resistance in vitro and in vivo” (Eur J Med Chem, 2024)
The source made the active and inactive calls. The rule behind the calls is not given here.

Legend:
[1] = molecular target: T1, Protein cereblon/Tubulin beta (Homo sapiens) (UniProt P68371+Q9H4B7+Q13509+P04350+Q3ZCM7+P07437+Q13885+Q9BVA1+Q9BUF5+Q96SW2+A6NNZ2); test: Protac activity at CRBN/beta-tubulin in human A549 cells assessed as reduction in beta-tubulin level at 0.25 uM after 48 hrs by immunoblotting analysis; type: cell-based; design: scale not given: the % may be the effect or the level left
[2] = molecular target: T2, Protein cereblon/Tubulin beta-3 chain (Homo sapiens, UniProt Q13509+Q96SW2); test: Protac activity at CRBN/beta3-tubulin in human A549/Taxol cells assessed as reduction in beta3-tubulin level at 0.25 uM pretreated with pomalidomide for 2 hrs followed by compound addition and measured after 48 hrs by immunoblotting analysis; type: cell-based
Target sequence in this assay (Q13509 whole entry, looked up): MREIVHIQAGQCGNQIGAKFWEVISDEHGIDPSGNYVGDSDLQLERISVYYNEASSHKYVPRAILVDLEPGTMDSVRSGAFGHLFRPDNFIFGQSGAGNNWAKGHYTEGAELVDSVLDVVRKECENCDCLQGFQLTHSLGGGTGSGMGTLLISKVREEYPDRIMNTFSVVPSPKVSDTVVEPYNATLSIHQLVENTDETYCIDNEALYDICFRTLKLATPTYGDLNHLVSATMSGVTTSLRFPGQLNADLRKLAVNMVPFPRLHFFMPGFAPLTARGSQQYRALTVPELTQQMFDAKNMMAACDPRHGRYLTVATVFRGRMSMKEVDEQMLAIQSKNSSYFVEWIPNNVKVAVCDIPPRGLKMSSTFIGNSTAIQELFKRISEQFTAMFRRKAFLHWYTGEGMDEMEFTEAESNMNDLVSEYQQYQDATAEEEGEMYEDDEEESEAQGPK
Target sequence in this assay (Q96SW2 whole entry, looked up): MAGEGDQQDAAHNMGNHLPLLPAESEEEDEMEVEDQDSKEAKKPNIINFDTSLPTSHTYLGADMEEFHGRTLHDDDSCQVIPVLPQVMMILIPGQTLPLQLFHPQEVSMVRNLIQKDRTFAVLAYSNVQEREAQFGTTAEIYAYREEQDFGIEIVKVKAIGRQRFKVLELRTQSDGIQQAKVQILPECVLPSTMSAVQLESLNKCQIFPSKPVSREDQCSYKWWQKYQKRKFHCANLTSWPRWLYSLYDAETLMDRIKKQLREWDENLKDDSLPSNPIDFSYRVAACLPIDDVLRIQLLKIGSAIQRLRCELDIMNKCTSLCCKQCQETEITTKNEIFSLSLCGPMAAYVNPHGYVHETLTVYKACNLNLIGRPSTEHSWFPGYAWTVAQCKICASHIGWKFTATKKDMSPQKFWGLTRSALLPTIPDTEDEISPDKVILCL

[3] = molecular target: T1, Protein cereblon/Tubulin beta (Homo sapiens); test: Protac activity at CRBN/beta-tubulin in human A549 cells assessed as reduction in beta-tubulin level at 0.25 uM pretreated for 48 hrs followed by compound washout and measured upto 12 hrs by immunoblotting analysis; type: cell-based
[4] = molecular target: T1, Protein cereblon/Tubulin beta (Homo sapiens); test: Protac activity at CRBN/beta-tubulin in human HeLa cells assessed as reduction in beta-tubulin level at 10 to 1000 nM incubated for 48 hrs by immunoblotting analysis; type: cell-based; conditions: dose 10-1000 nM
A549/TR [5] = test: Induction of cell cycle arrest in human A549/Taxol cells assessed as accumulation of cells at G0/G1 phase at 0.01 uM incubated for 24 hrs by PI staining based flow cytometry analysis (reference value: 77.86%); type: functional
A549 [6] = test: Induction of cell cycle arrest in human A549 cells assessed as accumulation of cells at S phase at 0.01 uM incubated for 24 hrs by PI staining based flow cytometry analysis (reference value: 1.39%); type: functional
HepG2 [7] = test: Inhibition of cell migration in human HepG2 cells; type: functional, cell-based
[8] = Toxicity in nude mouse xenografted with human A549/Taxol cells assessed as body weight loss at 15 mg/kg, ip administered once every 2 days for 23 days and measured every 3 days; type: organism-based, A549/TR; conditions: in vivo, 552 h, time 23 day
[9] = molecular target: T3, Protein cereblon-alpha tubulin (Homo sapiens) (UniProt P0DPH7+P68366+Q71U36+P68363+Q9BQE3+Q6PEY2+A6NHL2+Q9NY65+Q96SW2); test: Protac activity at CRBN/alpha-tubulin in human MGC-803 cells assessed as reduction in alpha-tubulin level at 10 to 1000 nM incubated for 48 hrs by immunoblotting analysis; type: cell-based; conditions: dose 10-1000 nM
A549/TR [10] = test: Induction of cell cycle arrest in human A549/Taxol cells assessed as accumulation of cells at S phase at 0.002 uM incubated for 24 hrs by PI staining based flow cytometry analysis (reference value: 2.85%); type: functional
A549/TR [11] = test: Induction of cell cycle arrest in human A549/Taxol cells assessed as accumulation of cells at S phase at 0.05 uM incubated for 24 hrs by PI staining based flow cytometry analysis (reference value: 2.85%); type: functional
[12] = molecular target: T1, Protein cereblon/Tubulin beta (Homo sapiens); test: (§1) Protac activity at CRBN/beta-tubulin in human A549 cells assessed as reduction in beta-tubulin level incubated for 48 hrs by immunoblotting analysis; type: cell-based
[13] = molecular target: Protein cereblon/Tubulin beta; test: as §1; type: cell-based
A549 [14] = test: Induction of cell cycle arrest in human A549 cells assessed as accumulation of cells at S phase at 0.002 uM incubated for 24 hrs by PI staining based flow cytometry analysis (reference value: 1.39%); type: functional
[15] = molecular target: T3, Protein cereblon-alpha tubulin (Homo sapiens); test: Protac activity at CRBN/alpha-tubulin in human A549 cells assessed as reduction in alpha-tubulin level at 0.25 uM pretreated with pomalidomide for 2 hrs followed by compound addition and measured after 24 hrs by immunoblotting analysis; type: cell-based
[16] = molecular target: T1, Protein cereblon/Tubulin beta (Homo sapiens); test: Protac activity at CRBN/beta-tubulin in human A549 cells assessed as reduction in beta-tubulin level at 0.01 to 1 uM incubated for 48 hrs by immunoblotting analysis; type: cell-based; conditions: dose 0.01-1 µM
[17] = molecular target: T2, Protein cereblon/Tubulin beta-3 chain; test: Protac activity at CRBN/beta3-tubulin in human HeLa cells assessed as reduction in beta3-tubulin level at 10 to 1000 nM incubated for 48 hrs by immunoblotting analysis; type: cell-based; conditions: dose 10-1000 nM
Target sequence in this assay (Q13509 whole entry, looked up): as the sequence (Q13509 whole entry, looked up) above
Target sequence in this assay (Q96SW2 whole entry, looked up): as the sequence (Q96SW2 whole entry, looked up) above

[18] = Resistance index, ratio of IC50 for human A549/Taxol cells to IC50 for human A549 cells; type: functional
A549/TR [19] = test: Induction of cell cycle arrest in human A549/Taxol cells assessed as accumulation of cells at S phase at 0.01 uM incubated for 24 hrs by PI staining based flow cytometry analysis (reference value: 2.85%); type: functional
[20] = molecular target: T2, Protein cereblon/Tubulin beta-3 chain; test: Protac activity at CRBN/beta3-tubulin in human A549/Taxol cells assessed as reduction in beta3-tubulin level at 0.25 uM pretreated with MG-132 followed by compound addition and measured after 48 hrs by immunoblotting analysis; type: cell-based
Target sequence in this assay (Q13509 whole entry, looked up): as the sequence (Q13509 whole entry, looked up) above
Target sequence in this assay (Q96SW2 whole entry, looked up): as the sequence (Q96SW2 whole entry, looked up) above

HEK-293T = test: Cytotoxicity against HEK293T cells assessed as effect on cell viability at 20 uM; type: toxicity, cell-based; conditions: human
A549 [21] = test: Antitumor activity against human A549 cells xenografted in nude mouse assessed as decrease in tumor volume at 15 mg/kg, ip administered once every 2 days for 23 days by Vernier caliper method; type: functional, organism-based; conditions: time 23.0 day
[22] = molecular target: T3, Protein cereblon-alpha tubulin (Homo sapiens); test: Protac activity at CRBN/alpha-tubulin in human A549/Taxol cells assessed as reduction in alpha-tubulin level at 0.25 uM pretreated with MG-132 followed by compound addition and measured after 48 hrs by immunoblotting analysis; type: cell-based
[23] = molecular target: T3, Protein cereblon-alpha tubulin (Homo sapiens); test: Protac activity at CRBN/alpha-tubulin in human A549 cells assessed as reduction in alpha-tubulin level at 0.25 uM by immunoblotting analysis; type: cell-based; conditions: time 6-72 hrs, TDE = time-dependent effect
HepG2 [24] = test: Inhibition of cell invasion in human HepG2 cells; type: functional, cell-based
HepG2 [25] = test: Induction of apoptosis in human HepG2 cells; type: functional, cell-based
A549 [26] = test: Induction of cell cycle arrest in human A549 cells assessed as accumulation of cells at G2/M phase at 0.01 uM incubated for 24 hrs by PI staining based flow cytometry analysis (reference value: 31.86%); type: functional
HUVEC = test: Antiangiogenic activity in HUVECs assessed as reduction in tube length at 2.5 nM incubated for 6 to 8 hrs by inverted microscopic analysis; type: functional, cell-based; conditions: Homo sapiens, time 6-8 hrs
[27] = molecular target: T3, Protein cereblon-alpha tubulin (Homo sapiens); test: Protac activity at CRBN/alpha-tubulin in human HeLa cells assessed as reduction in alpha-tubulin level at 10 to 1000 nM incubated for 48 hrs by immunoblotting analysis; type: cell-based; conditions: dose 10-1000 nM
A549 [28] = test: Inhibition of cell growth in human A549 cells incubated for 72 hrs by SRB method; type: functional, cell-based
[29] = molecular target: T3, Protein cereblon-alpha tubulin (Homo sapiens); test: Protac activity at CRBN/alpha-tubulin in human A549 cells assessed as reduction in alpha-tubulin level at 0.01 to 1 uM incubated for 48 hrs by immunoblotting analysis; type: cell-based; conditions: dose 0.01-1 µM
[30] = molecular target: T3, Protein cereblon-alpha tubulin (Homo sapiens); test: Protac activity at CRBN/alpha-tubulin in human A549 cells assessed as reduction in alpha-tubulin level at 0.25 uM pretreated with MG-132 followed by compound addition and measured after 24 hrs by immunoblotting analysis; type: cell-based
[31] = molecular target: T2, Protein cereblon/Tubulin beta-3 chain; test: Protac activity at CRBN/beta3-tubulin in human A549/Taxol cells assessed as reduction in beta3-tubulin level incubated for 48 hrs by immunoblotting analysis; type: cell-based
[32] = molecular target: T1, Protein cereblon/Tubulin beta (Homo sapiens); test: Protac activity at CRBN/beta-tubulin in human A549/Taxol cells assessed as reduction in beta-tubulin level at 0.25 uM pretreated with MG-132 followed by compound addition and measured after 48 hrs by immunoblotting analysis; type: cell-based

Activity [1]: 31.1%
Activity [2]: inactive
Activity [3]: Active
Activity [4]: Active
Activity [9]: Active
Activity [12]: Dose-Dependent Effect
DC50 [13]: 856 nM
Activity [15]: inactive
Activity [16]: Active
Activity [17]: Active
Activity [20]: inactive
Activity [22]: inactive
Activity [23]: Tde
Activity [27]: Active
IC50 (A549 [28]; A549, 72 h): 10 nM
Activity [29]: Active
Activity [30]: inactive
Activity [31]: Dose-Dependent Effect
DC50 [31]: 5 nM
Activity [32]: inactive
Structure (SMILES): COc1ccc(/C=C\c2cc(OC)c(OC)c(OC)c2)cc1OC(=O)CCCNc1cccc2c1C(=O)N(C1CCC(=O)NC1=O)C2=O (stereo unspecified)
Activity (A549/TR [5]): 26.79%
Activity (A549 [6]): 15.35%
inhibition (HepG2 [7]): Dose-Dependent Effect
Activity [8]: Non-Toxic
Activity (A549/TR [10]): 7.68%
Activity (A549/TR [11]): 3.85%
Activity (A549 [14]): 5.65%
Ratio IC50 [18]: 0.5
Activity (A549/TR [19]): 10.77%
Activity (HEK-293T): Non-Toxic
Activity (A549 [21]): Active
inhibition (HepG2 [24]): Dose-Dependent Effect
Activity (HepG2 [25]): Active
Activity (A549 [26]): 68.36%
Activity (HUVEC): Active
inhibition (A549 [28]): Dose-Dependent Effect
